From patent US20260374756A1, “HETEROCYCLIC COMPOUNDS AS INHIBITORS OF MONOACYLGLYCEROL LIPASE (MAGL)” (Hoffmann-La Roche Inc., priority 2022, published 2026)

molecular target: T1, hMAGL (Homo sapiens, UniProt Q99685); experiment: 2-AG assay: MAGL inhibition, hydrolysis of 2-arachidonoylglycerol to arachidonic acid followed by mass spectrometry; format: biochemical
T1 sequence (Q99685 1-303): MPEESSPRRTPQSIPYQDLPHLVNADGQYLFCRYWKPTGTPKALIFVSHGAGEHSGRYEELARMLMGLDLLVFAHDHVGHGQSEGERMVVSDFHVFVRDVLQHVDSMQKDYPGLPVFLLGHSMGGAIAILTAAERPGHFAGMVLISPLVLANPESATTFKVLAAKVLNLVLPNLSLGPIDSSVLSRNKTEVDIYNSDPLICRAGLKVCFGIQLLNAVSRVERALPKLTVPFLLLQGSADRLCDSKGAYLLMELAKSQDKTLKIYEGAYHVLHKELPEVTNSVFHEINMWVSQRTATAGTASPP
Method in brief: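 Read-out is LC-MS/MS of arachidonic acid released from 2-arachidonoylglycerol (8 μM final), normalised to d8-arachidonic acid internal standard after acetonitrile quench. Enzyme […] and compound were pre-mixed 15 min, then reacted 30 min, both at RT, in Tris/EDTA buffer with 0.01% Tween-20 and 2.5% DMSO.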

| SMILES | IC50 [nM] |
| --- | --- |
| CC(C)(C)c1nnc(CN2CC3(C2)CN(C(=O)N2CC4(CC(n5cnc(C6(O)CC6)n5)C4)C2)C3)s1 [Example 210, [6-[(5-tert-butyl-1,3,4-thiadiazol-2-yl)methyl]-2,6-diazaspiro[3.3]heptan-2-yl]-[6-[3-(1-hydroxycyclopropyl)-1,2,4-triazol-1-yl]-2-azaspiro[3.3]heptan-2-yl]methanone] | 28 |
| Cc1cc(C2CC2)nn1CC1CC2(C1)CN(C(=O)N1CC3(CC(n4cnc(C5(O)CC5)n4)C3)C1)C2 [Example 136, [6-[(3-cyclopropyl-5-methyl-pyrazol-1-yl)methyl]-2-azaspiro[3.3]heptan-2-yl]-[6-[3-(1-hydroxycyclopropyl)-1,2,4-triazol-1-yl]-2-azaspiro[3.3]heptan-2-yl]methanone] | 5.53 |
| O=C(N1CC2(CC(Cn3cnc(C(F)(F)F)c3)C2)C1)N1CC2(CC(n3cnc(C4(O)CC4)n3)C2)C1 [Example 41, [6-[3-(1-hydroxycyclopropyl)-1,2,4-triazol-1-yl]-2-azaspiro[3.3]heptan-2-yl]-[6-[[4-(trifluoromethyl)imidazol-1-yl]methyl]-2-azaspiro[3.3]heptan-2-yl]methanone] | 93.7 |
| O=C(N1CC2(CC(Cc3n[nH]c(C4(C(F)(F)F)CC4)n3)C2)C1)N1CC2(CC(n3cnc(C4CC4)n3)C2)C1 [Example 102, [6-(3-cyclopropyl-1,2,4-triazol-1-yl)-2-azaspiro[3.3]heptan-2-yl]-[6-[[5-[1-(trifluoromethyl)cyclopropyl]-1H-1,2,4-triazol-3-yl]methyl]-2-azaspiro[3.3]heptan-2-yl]methanone] | 0.58 |
| O=C(N1CC2(CC(Cc3nc(C(F)(F)F)co3)C2)C1)N1CC2(CC(n3cnc(C4(O)CC4)n3)C2)C1 [Example 23, [6-[3-(1-hydroxycyclopropyl)-1,2,4-triazol-1-yl]-2-azaspiro[3.3]heptan-2-yl]-[6-[[4-(trifluoromethyl)oxazol-2-yl]methyl]-2-azaspiro[3.3]heptan-2-yl]methanone] | 24.5 |
| Cn1ncc(CC2CC3(C2)CN(C(=O)N2CC4(CC(n5cnc(C6(O)CC6)n5)C4)C2)C3)c1C(F)(F)F [Example 1, [6-[3-(1-hydroxycyclopropyl)-1,2,4-triazol-1-yl]-2-azaspiro[3.3]heptan-2-yl]-[6-[[1-methyl-5-(trifluoromethyl)pyrazol-4-yl]methyl]-2-azaspiro[3.3]heptan-2-yl]methanone] | 0.47 |
| N#Cc1cnn(CC2CC3(C2)CN(C(=O)N2CC4(CC(n5cnc(C6(O)CC6)n5)C4)C2)C3)c1 [Example 38] | 190 |
| Cn1cnc(C#N)c1CN1CC2(C1)CN(C(=O)N1CC3(CC(n4cnc(C(F)(F)F)n4)C3)C1)C2 [Example 280, 1-methyl-5-[[2-[6-[3-(trifluoromethyl)-1,2,4-triazol-1-yl]-2-azaspiro[3.3]heptane-2-carbonyl]-2,6-diazaspiro[3.3]heptan-6-yl]methyl]imidazole-4-carbonitrile] | 636 |
| O=C(N1CC2(CC(Cn3cnc(C4(C(F)(F)F)CC4)n3)C2)C1)N1CC2(CC(n3cnc(C4(O)CC4)n3)C2)C1 [Example 75, [6-[3-(1-hydroxycyclopropyl)-1,2,4-triazol-1-yl]-2-azaspiro[3.3]heptan-2-yl]-[6-[[3-[1-(trifluoromethyl)cyclopropyl]-1,2,4-triazol-1-yl]methyl]-2-azaspiro[3.3]heptan-2-yl]methanone] | 7.62 |
| O=C(N1CC2(CC(Cn3cc(S(=O)(=O)C(F)(F)F)cn3)C2)C1)N1CC2(CC(n3cnc(C(F)(F)F)n3)C2)C1 [Example 353, [6-[3-(trifluoromethyl)-1,2,4-triazol-1-yl]-2-azaspiro[3.3]heptan-2-yl]-[6-[(4-triflylpyrazol-1-yl)methyl]-2-azaspiro[3.3]heptan-2-yl]methanone] | 0.19 |
| Cn1nc(C(F)(F)F)cc1CN1CCC2(CC1)CN(C(=O)N1CC3(CC(n4cnc(C5(O)CC5)n4)C3)C1)C2 [Example 27, [6-[3-(1-hydroxycyclopropyl)-1,2,4-triazol-1-yl]-2-azaspiro[3.3]heptan-2-yl]-[7-[[2-methyl-5-(trifluoromethyl)pyrazol-3-yl]methyl]-2,7-diazaspiro[3.5]nonan-2-yl]methanone] | 122 |

Results, then the compound that gave them:

| IC50 [nM] | SMILES |
| --- | --- |
| 66.8 | O=C(N1CC2(CC(n3cnc(C4CC4)n3)C2)C1)N1CC2(CN(Cc3nnc(C(F)(F)F)s3)C2)C1 [Example 83, [6-(3-cyclopropyl-1,2,4-triazol-1-yl)-2-azaspiro[3.3]heptan-2-yl]-[6-[[5-(trifluoromethyl)-1,3,4-thiadiazol-2-yl]methyl]-2,6-diazaspiro[3.3]heptan-2-yl]methanone] |
| 86.8 | O=C(N1CC2(CC(n3cnc(C4(O)CC4)n3)C2)C1)N1CC2(CN(Cc3cc(C(F)(F)F)sn3)C2)C1 [Example 155, [6-[3-(1-hydroxycyclopropyl)-1,2,4-triazol-1-yl]-2-azaspiro[3.3]heptan-2-yl]-[6-[[5-(trifluoromethyl)isothiazol-3-yl]methyl]-2,6-diazaspiro[3.3]heptan-2-yl]methanone] |
| 9.83 | O=C(N1CC2(CCN(Cc3nc(C(F)(F)F)cs3)CC2)C1)N1CC2(CC(n3cnc(C4CC4)n3)C2)C1 [Example 177, [6-(3-cyclopropyl-1,2,4-triazol-1-yl)-2-azaspiro[3.3]heptan-2-yl]-[7-[[4-(trifluoromethyl)thiazol-2-yl]methyl]-2,7-diazaspiro[3.5]nonan-2-yl]methanone] |
| 13.9 | O=C(N1CC2(CCN(Cc3cc(C(F)(F)F)no3)CC2)C1)N1CC2(CC(n3cnc(C4CC4)n3)C2)C1 [Example 329, [6-(3-cyclopropyl-1,2,4-triazol-1-yl)-2-azaspiro[3.3]heptan-2-yl]-[7-[[3-(trifluoromethyl)isoxazol-5-yl]methyl]-2,7-diazaspiro[3.5]nonan-2-yl]methanone] |
| 735 | O=C(N1CC2(CC(n3cnc(C4CC4)n3)C2)C1)N1CC2(CN(Cc3cn(CC(F)(F)F)nn3)C2)C1 [Example 108, [6-(3-cyclopropyl-1,2,4-triazol-1-yl)-2-azaspiro[3.3]heptan-2-yl]-[6-[[1-(2,2,2-trifluoroethyl)triazol-4-yl]methyl]-2,6-diazaspiro[3.3]heptan-2-yl]methanone] |
| 16.8 | Cn1cc(CN2CC3(C2)CN(C(=O)N2CC4(CC(n5cnc(C6CC6)n5)C4)C2)C3)c(C(F)(F)F)n1 [Example 192] |
| 18.1 | O=C(N1CC2(CC(n3cnc(C4CC4)n3)C2)C1)N1CC2(CN(Cc3nccn3C(F)(F)F)C2)C1 [Example 236, [6-(3-cyclopropyl-1,2,4-triazol-1-yl)-2-azaspiro[3.3]heptan-2-yl]-[6-[[1-(trifluoromethyl)imidazol-2-yl]methyl]-2,6-diazaspiro[3.3]heptan-2-yl]methanone] |
| 92.6 | O=C(N1CC2(CC(n3cnc(C4CC4)n3)C2)C1)N1CC2(CN(Cc3ccn(CC(F)(F)F)n3)C2)C1 [Example 100, [6-(3-cyclopropyl-1,2,4-triazol-1-yl)-2-azaspiro[3.3]heptan-2-yl]-[6-[[1-(2,2,2-trifluoroethyl)pyrazol-3-yl]methyl]-2,6-diazaspiro[3.3]heptan-2-yl]methanone] |
| 1630 | O=C(N1CC2(CC(n3cnc(C4CC4)n3)C2)C1)N1CC2(CN(Cc3cc[nH]n3)C2)C1 [Example 257, [6-(3-cyclopropyl-1,2,4-triazol-1-yl)-2-azaspiro[3.3]heptan-2-yl]-[6-(1H-pyrazol-3-ylmethyl)-2,6-diazaspiro[3.3]heptan-2-yl]methanone] |
| 183 | Cc1c(CN2CC3(C2)CN(C(=O)N2CC4(CC(n5cnc(C6CC6)n5)C4)C2)C3)cnn1C [Example 309, [6-(3-cyclopropyl-1,2,4-triazol-1-yl)-2-azaspiro[3.3]heptan-2-yl]-[6-[(1,5-dimethylpyrazol-4-yl)methyl]-2,6-diazaspiro[3.3]heptan-2-yl]methanone] |
| 32.6 | O=C(N1CC2(CC(n3cnc(C4CC4)n3)C2)C1)N1CC2(CN(Cc3ncoc3C(F)(F)F)C2)C1 [Example 221, [6-(3-cyclopropyl-1,2,4-triazol-1-yl)-2-azaspiro[3.3]heptan-2-yl]-[6-[[5-(trifluoromethyl)oxazol-4-yl]methyl]-2,6-diazaspiro[3.3]heptan-2-yl]methanone] |
| 1.52 | O=C(N1CC2(CC(n3cnc(C4CC4)n3)C2)C1)N1CC2(CN(Cc3ncc(C(F)(F)F)s3)C2)C1 [Example 150, [6-(3-cyclopropyl-1,2,4-triazol-1-yl)-2-azaspiro[3.3]heptan-2-yl]-[6-[[5-(trifluoromethyl)thiazol-2-yl]methyl]-2,6-diazaspiro[3.3]heptan-2-yl]methanone] |
| 4.46 | Cn1ncc(CN2CC3(C2)CN(C(=O)N2CC4(CC(n5cnc(C6CC6)n5)C4)C2)C3)c1C(F)(F)F [Example 165, [6-(3-cyclopropyl-1,2,4-triazol-1-yl)-2-azaspiro[3.3]heptan-2-yl]-[6-[[1-methyl-5-(trifluoromethyl)pyrazol-4-yl]methyl]-2,6-diazaspiro[3.3]heptan-2-yl]methanone] |
| 0.92 | Cn1ncc(OC2CC3(C2)CN(C(=O)N2CC4(CC(n5cnc(C6CC6)n5)C4)C2)C3)c1C(F)(F)F [Example 247, [6-(3-cyclopropyl-1,2,4-triazol-1-yl)-2-azaspiro[3.3]heptan-2-yl]-[6-[1-methyl-5-(trifluoromethyl)pyrazol-4-yl]oxy-2-azaspiro[3.3]heptan-2-yl]methanone] |
